According to US20220289678A1, “COMPOUND, POLYMER, AND ORGANIC MATERIAL, AND OPTICAL APPARATUS, OPTICAL PART, AND IMAGE DISPLAY APPARATUS USING THE ORGANIC MATERIAL” (Sony Group Corporation, priority 2019, published 2022):
Read-outs that look alike come from different tables or passages of the source.

What was measured:
[1] = Refractive index of compound, Abbe refractometer, calibration curve extrapolated; type: physicochemical; settings: for Refractive index: average refractive index to light of 589 nm, 25±1° C., acetone or chloroform solution, extrapolated to volume fraction 1; for Refractive index compared with compound (11-1) according to Test Example 15: comparison in words
Experimental: Note that the refractive index can be measured by a critical angle method or a spectroscopic ellipsometry method. For example, in the critical angle method, measurement can be performed using an Abbe refractometer ER-1 manufactured by ERMA INC (measurement wavelengths are measured in visible light areas using 486 nm, 589 nm, 656 nm, and the like).
(§1) An acetone solution or a chloroform solution of each of the compounds according to Test Examples 1 to 15 was prepared, and the average refractive index to light of 589 nm at room temperature of 25±1° C. was measured by an Abbe refractometer (manufactured by ERMA INC., ER-1), and plotted against the volume fraction of each compound to prepare a calibration curve. Note that as the density of each compound, a value determined by a dry densitometer (AccuPyc II 1340-10CC (manufactured by Shimadzu Corporation)) was used. The calibration curve was extrapolated, and the refractive index when the volume fraction of each compound became 1 was used as the refractive index of each compound. The measurement results of the refractive index and density (g/cm^3) of each of the compounds according to Test Examples 1 to 15 are shown in Table 1 below.

[2] = Solubility in organic solvent, visual dissolution; type: physicochemical; settings: ultrasonic stirring
Experimental: 20 mg of each of the compounds according to Test Examples 1 to 15 was weighed into a vial bottle, acetone was added to make a total amount of […], and then, the mixture was stirred with ultrasonic waves for 30 seconds. In the case where there was an undissolved product by visual recognition, a small amount of acetone was added thereto, and the mixture was stirred for another 30 seconds. The task described above was repeated, and the solubility was calculated from the total amount of solvents when all were dissolved.

[3] = Density by dry densitometer; type: physicochemical; settings: dry densitometer AccuPyc II 1340-10CC
Experimental: as §1

[4] = commercial product, Osaka Gas Chemical Co., Ltd.; cited from earlier work

Compound | Refractive index [1] | Solubility Chloroform [2] [wt %] | Density [3] [g/mL] | Solubility Acetone [2] [wt %] | Refractive index compared with compound (11-1) according to Test Example 15 [1] | Refractive index [4]
C=C(C)C(=O)OCC(Cn1c2ccc3ccccc3c2c2c3ccccc3ccc21)OC(=O)C(=C)C (centres unmarked) [(10-5)] | 1.72 | 19 | 1.26 | – | higher than the refractive index of the compound (11-1) | –
C=CC(=O)Oc1cc(OC(=O)C=C)cc(-n2c3ccc4ccccc4c3c3c4ccccc4ccc32)c1 [(6-8)] | – | – | 1.31 | 3 | higher than the refractive index of the compound (11-1) | –
C=C(C)C(=O)OCCOCC(Cn1c2ccc3ccccc3c2c2c3ccccc3ccc21)OCCOC(=O)C(=C)C (centres unmarked) [(10-7)] | – | – | – | – | higher than the refractive index of the compound (11-1) | –
C=CC(=O)OCCCCOc1cc(OCCCCOC(=O)C=C)cc(-n2c3ccc4ccccc4c3c3c4ccccc4ccc32)c1 [(10-11)] | – | – | – | – | higher than the refractive index of the compound (11-1) | –
C=CC(=O)OCCOc1cc(Cn2c3ccc4ccccc4c3c3c4ccccc4ccc32)cc(OCCOC(=O)C=C)c1 [(10-3)] | 1.71 | – | 1.29 | – | higher than the refractive index of the compound (11-1) | –
C=CC(=O)OCCOCC(Cn1c2ccc3ccccc3c2c2c3ccccc3ccc21)OCCOC(=O)C=C (centres unmarked) [(10-6)] | – | – | – | – | higher than the refractive index of the compound (11-1) | –
bisphenoxyethanol fluorene diacrylate [EA-0200] | – | – | – | – | – | 1.62

Further lines, with some results ahead:

Refractive index [1] | Solubility Chloroform [2] [wt %] | Density [3] [g/mL] | Solubility Acetone [2] [wt %] | Compound | Refractive index compared with compound (11-1) according to Test Example 15 [1] | Refractive index [4]
1.74 | 13 | 1.31 | 5 | C=CC(=O)OCCn1c2ccccc2c2ccc3ccccc3c21 [(10-9)] | higher than the refractive index of the compound (11-1) | –
1.74 | – | 1.3 | 18 | C=CC(=O)OCCn1c2ccccc2c2c3ccccc3ccc21 [(10-8)] | higher than the refractive index of the compound (11-1) | –
– | – | 1.27 | – | C=CC(=O)OCCOc1cc(OCCOC(=O)C=C)cc(-n2c3ccc4ccccc4c3c3c4ccccc4ccc32)c1 [(10-10)] | higher than the refractive index of the compound (11-1) | –
1.68 | – | 1.21 | 44 | C=CC(=O)OCCn1c2ccccc2c2ccccc21 [(11-1), acrylic acid 2-(9H-carbazol-9-yl) ethyl, reference compound] | – | –
– | 17 | 1.3 | 5 | C=CC(=O)Oc1cc(Cn2c3ccc4ccccc4c3c3c4ccccc4ccc32)cc(OC(=O)C=C)c1 [(10-1)] | higher than the refractive index of the compound (11-1) | –
1.72 | – | 1.22 | – | C=CC(=O)OCC(Cn1c2ccc3ccccc3c2c2c3ccccc3ccc21)OC(=O)C=C (centres unmarked) [(10-4)] | higher than the refractive index of the compound (11-1) | –
– | – | 1.22 | – | C=CC(=O)OCCn1c2ccc3ccccc3c2c2c3ccccc3ccc21 [(6-3)] | higher than the refractive index of the compound (11-1) | –
1.69 | – | 1.26 | – | C=CC(=O)OCCOc1cc(OCCOC(=O)C=C)cc(-n2c3ccccc3c3c4ccccc4ccc32)c1 [(10-12)] | higher than the refractive index of the compound (11-1) | –
1.73 | – | 1.29 | 20 | C=CC(=O)Oc1cc(CCn2c3ccc4ccccc4c3c3c4ccccc4ccc32)cc(OC(=O)C=C)c1 [(10-2)] | higher than the refractive index of the compound (11-1) | –
